This note sets out measurements from US20080152735A1, “Herbal Extract Having Anti- Influenza Virus Activity and Preparation of Same” (NATIONAL DEFENSE MEDICAL CENTER, priority 2006, published 2008).

One data set deals with influenza virus (H1N1). Put plainly: in vitro anti-influenza virus test in MDCK cells, MTT readout. Format: cell-based.
For data set [1], the system named is neuraminidase (NA) of influenza virus. Format: biochemical. As to conditions: for FU/min (neuraminidase enzymatic activity in presence of medicament): kit positive control 0.42 FU/min; for activity relative to that of Tamiflu: same dosage 0.5 mg/mL, ratio of FU/min values.
Data set [2] relates to MDCK cells (Madin-Darby Canine Kidney Epithelial Cells).

Where two headings read alike, the source gives them in different places.

On to `NC(=O)c1ncn([C@@H]2O[C@H](CO)[C@@H](O)[C@H]2O)n1` [Ribavirin, reference compound], for which, in the data set on influenza virus (H1N1) (MTT absorbance percentage vs mock control, […], dosage 9.37 μg/mL, MDCK cells, H1N1), the “D1 + V” value was “+++ (>75≦100 as +++)”.
Turning to `CC(C)=CCc1c(O)cc2oc(-c3ccc(O)cc3)c(O)c(=O)c2c1O` [SOFL-EM-8-6C, licoflavonol], the cell survival rate result is “up to 100%” with influenza virus (H1N1) (D1+V: infecting with virus one hour after pretreatment with test drug, 10 μg/mL); 75% with influenza virus (H1N1) (DV: cells treated simultaneously with test drug and virus, 10 μg/mL); 100% in the data set on influenza virus (H1N1) (V1+D: test drug added one hour after adsorption of virus on cell, 10 μg/mL). The DV result with influenza virus (H1N1) (MTT absorbance percentage vs mock control, cells treated simultaneously with test drug and virus, dosage 10 μg/mL, MDCK cells, H1N1) is “+++ (>75≦100 as +++)”. Besides, the “V1 + D” value in the data set on influenza virus (H1N1) (MTT absorbance percentage vs mock control, test drug added one hour after adsorption of virus on cell, dosage 10 μg/mL, MDCK cells, H1N1) is given as “++++ (>100 as ++++)”. Besides, the “D1 + V” value with influenza virus (H1N1) (MTT absorbance percentage vs mock control, virus infection one hour after pretreatment with test drug, dosage 10 μg/mL, MDCK cells, H1N1) is “++++ (>100 as ++++)”. The Response entry in data set [1] (dosage 0.05 mg/mL) and in data set [1] (dosage 0.5 mg/mL) was “Inhibition” in each case. Besides, the “FU/min (neuraminidase enzymatic activity in presence of medicament)” value (“FU/min” below) turned out to be 0.13 FU/min in data set [1] (dosage 0.05 mg/mL) and 0.02 FU/min in data set [1] (dosage 0.5 mg/mL). Besides, the “activity relative to that of Tamiflu” value in data set [1] is listed as “two-fold”.
As to `O=c1c(O)c(-c2ccc(O)cc2)oc2cc(O)cc(O)c12` [SOFL-EM-8-6S, kaempferol], in data set [2], the D result is given as “++++ (key: absorbance percentage≦25 was recorded as +/−; >25≦50 recorded as +; >50≦75 as ++; >75≦100 as +++; >100 as ++++)”. Besides, in the data set with influenza virus (H1N1) (D1+V: infecting with virus one hour after pretreatment with test drug, 18.75 μg/mL), the cell survival rate result is “up to 75%”. In the data set with influenza virus (H1N1) (MTT absorbance percentage vs mock control, virus infection one hour after pretreatment with test drug, dosage 18.75 μg/mL, MDCK cells, H1N1), the “D1 + V” value was “+++ (>75≦100 as +++)”. In data set [1] (dosage 0.5 mg/mL), the Response entry is “Inhibition” and the “FU/min” value was found to be 0.06 FU/min. The “activity relative to that of Tamiflu” value in data set [1] was “six-fold”.
`CCOC(=O)C1=C[C@@H](OC(CC)CC)[C@H](NC(C)=O)[C@@H](N)C1` [Tamiflu, reference compound]: in data set [1] (dosage 0.5 mg/mL), the Response entry is “Inhibition” and the “FU/min” value was determined as 0.01 FU/min.
